We go through 23 substances from patent publication US10253076B2, “Peptides and combination of peptides for use in immunotherapy against ovarian cancer and other cancers” (immatics biotechnologies GmbH, priority 2015, dated 2019).

One experiment has as its system CD8+ T cells. Kind of experiment: In vitro immunogenicity: T-cell priming with aAPCs loaded with peptide/MHC and anti-CD28, pMHC multimer readout. The conditions noted are these: HLA-A*02 restricted peptides. Format: cell-based, human. As to the method: In an aspect, the peptides are pre-screened for immunogenicity before being included in the warehouse. By way of example, and not limitation, the immunogenicity of the peptides included in the warehouse is determined by a method comprising in vitro T-cell priming through repeated stimulations of CD8+ T cells from healthy donors with artificial antigen presenting cells loaded with peptide/MHC complexes and anti-CD28 antibody.
In order to obtain information regarding the immunogenicity of the TUMAPs of the present invention, the inventors performed investigations using an in vitro T-cell priming assay based on repeated stimulations of CD8+ T cells with artificial antigen presenting cells (aAPCs) loaded with peptide/MHC complexes and anti-CD28 antibody.
In order to perform in vitro stimulations by artificial antigen presenting cells loaded with peptide-MHC complex (pMHC) and anti-CD28 antibody, the inventors first isolated CD8+ T cells from fresh HLA-A*02 leukapheresis products via positive selection using CD8 microbeads (Miltenyi Biotec, Bergisch-Gladbach, Germany) of healthy donors obtained from the University clinics Mannheim, Germany, after informed consent.
PBMCs and isolated CD8+ lymphocytes were incubated in T-cell medium (TCM) until use consisting of RPMI-Glutamax (Invitrogen, Karlsruhe, Germany) supplemented with 10% heat inactivated human AB serum (PAN-Biotech, Aidenbach, Germany), 100 U/ml Penicillin/100 μg/ml Streptomycin (Cambrex, Cologne, Germany), 1 mM sodium pyruvate (CC Pro, Oberdorla, Germany), 20 μg/ml Gentamycin (Cambrex). 2.5 ng/ml IL-7 (PromoCell, Heidelberg, Germany) and 10 U/ml IL-2 (Novartis Pharma, Nürnberg, Germany) were also added to the TCM at this step.
Generation of pMHC/anti-CD28 coated beads, T-cell stimulations and readout was performed in a highly defined in vitro system using four different pMHC molecules per stimulation condition and 8 different pMHC molecules per readout condition.
The purified co-stimulatory mouse IgG2a anti human CD28 Ab 9.3 (Jung et al., 1987) was chemically biotinylated using Sulfo-N-hydroxysuccinimidobiotin as recommended by the manufacturer (Perbio, Bonn, Germany). Beads used were 5.6 μm diameter streptavidin coated polystyrene particles (Bangs Laboratories, Illinois, USA).
pMHC used for positive and negative control stimulations were A*0201/MLA-001 (peptide […] (SEQ ID NO. 664) from modified Melan-A/MART-1) and A*0201/DDX5-001 ([…] from DDX5, SEQ ID NO. 665), respectively.
800.000 beads/200 μl were coated in 96-well plates in the presence of 4×12.5 ng different biotin-pMHC, washed and 600 ng biotin anti-CD28 were added subsequently in a volume of 200 μl. Stimulations were initiated in 96-well plates by co-incubating […] CD8+ T cells with 2×10^5 washed coated beads in 200 μl TCM supplemented with 5 ng/ml IL-12 (PromoCell) for 3 days at 37° C. Half of the medium was then exchanged by fresh TCM supplemented with 80 U/ml IL-2 and incubating was continued for 4 days at 37° C. This stimulation cycle was performed for a total of three times. For the pMHC multimer readout using 8 different pMHC molecules per condition, a two-dimensional combinatorial coding approach was used as previously described (Andersen et al., 2012) with minor modifications encompassing coupling to 5 different fluorochromes. Finally, multimeric analyses were performed by staining the cells with Live/dead near IR dye (Invitrogen, Karlsruhe, Germany), CD8-FITC antibody clone SK1 (BD, Heidelberg, Germany) and fluorescent pMHC multimers. For analysis, a BD LSRII SORP cytometer equipped with appropriate lasers and filters was used. Peptide specific cells were calculated as percentage of total CD8+ cells. Evaluation of multimeric analysis was done using the FlowJo software (Tree Star, Oregon, USA). In vitro priming of specific multimer+ CD8+ lymphocytes was detected by comparing to negative control stimulations. […]

Another experiment deals with HLA-A*02:01 (Homo sapiens, UniProt P04439, D140Y/D185E/D98H/E176V/E277Q/G131W/G231S/I119V/I121R/I166T/I218V/L300P/L318F/N151K/N90K/P208A/P217A/Q86G/Q94H/R138H/R169H/T345S). The experiment is described as follows: MHC binding assay (UV-ligand exchange, beta2m ELISA, peptide exchange yield). To be noted: binding of HLA-class I restricted peptides to HLA-A*02:01, ranged by peptide exchange yield (UV-ligand exchange, β2m ELISA). An outline of the steps:
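Readout is a β2m ELISA: stabilized complexes captured on streptavidin, detected with HRP-conjugated anti-β2m and TMB at 450 nm, reporting peptide exchange yield. Complexes come from UV-light cleavage of a conditional ligand in HLA-A*02:01 and replacement by the candidate peptide, samples diluted 100-fold.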

As for “48 (ALAELYEDEV; listed as Homo sapiens) [compound 48]”, in the experiment on CD8+ T cells, the “Wells positive [%]” value is “″+″ (<20% = +)”. In addition, the Peptide exchange entry in the experiment with HLA-A*02:01 is reported as “″+++″ (≥50% = +++)”.
For “199 (ALQDVPLSSV; listed as Homo sapiens) [compound 199]”, in that order: “″+″ (<20% = +)” and “″+++″ (≥50% = +++)”.
The corresponding values for “11 (KIFEMLEGV; listed as Homo sapiens) [compound 11]” are “″+″ (<20% = +)” and “″+++″ (≥50% = +++)”.
For “56 (KLYEGIPVLL; listed as Homo sapiens) [compound 56]”, in that order: “″+″ (<20% = +)” and “″++++″ (≥75% = ++++)”.
Consider “247 (VLLPNDLLEKV; listed as Homo sapiens) [compound 247]”, for which the “Wells positive [%]” value with CD8+ T cells is “″+″ (<20% = +)”. Besides, the Peptide exchange result in the experiment with HLA-A*02:01 is on record as “″+++″ (≥50% = +++)”.
For “603 (FLIEPEHVNTV; listed as Homo sapiens) [compound 603]”, in that order: “″+″ (<20% = +)” and “″++″ (≥20% = ++)”.
The corresponding values for “3 (SLASKLTTL; listed as Homo sapiens) [compound 3]” are “″+″ (<20% = +)” and “″++++″ (≥75% = ++++)”.
The corresponding values for “511 (FLDPYCSASV; listed as Homo sapiens) [compound 511]” are “″+″ (<20% = +)” and “″++″ (≥20% = ++)”.
Turning to “384 (ILFANPNIFV; listed as Homo sapiens) [compound 384]”, the “Wells positive [%]” value in the experiment on CD8+ T cells was “″+″ (<20% = +)”. In addition, the Peptide exchange result in the experiment with HLA-A*02:01 was “″+++″ (≥50% = +++)”.
For the substance “60 (SLTIDGIYYV; listed as Homo sapiens) [compound 60]”, in the experiment on CD8+ T cells, the “Wells positive [%]” value was “″++++″ (> = 70% = ++++)”. For the same substance, the Peptide exchange result in the experiment with HLA-A*02:01 was “″++++″ (≥75% = ++++)”.
The corresponding values for “118 (KLIDNNINV; listed as Homo sapiens) [compound 118]” are “″+″ (<20% = +)” and “″+++″ (≥50% = +++)”.
The corresponding values for “143 (LLLDITPEI; listed as Homo sapiens) [compound 143]” are “″+″ (<20% = +)” and “″++++″ (≥75% = ++++)”.
The corresponding values for “141 (YLDFSNNRL; listed as Homo sapiens) [compound 141]” are “″+″ (<20% = +)” and “″++″ (≥20% = ++)”.
Turning to “150 (RLWEEGEELEL; listed as Homo sapiens) [compound 150]”, the “Wells positive [%]” value in the experiment with CD8+ T cells is “″+″ (<20% = +)”. The Peptide exchange result with HLA-A*02:01 was “″+++″ (≥50% = +++)”.
For “166 (YLNHLEPPV; listed as Homo sapiens) [compound 166]”, in that order: “″++++″ (> = 70% = ++++)” and “″+++″ (≥50% = +++)”.
The corresponding values for “38 (FLLEDDIHVS; listed as Homo sapiens) [compound 38]” are “″+″ (<20% = +)” and “″+++″ (≥50% = +++)”.
The corresponding values for “36 (YVLEDLEVTV; listed as Homo sapiens) [compound 36]” are “″+″ (<20% = +)” and “″++″ (≥20% = ++)”.
With “113 (GLLPTPLFGV; listed as Homo sapiens) [compound 113]”, the “Wells positive [%]” value with CD8+ T cells is listed as “″+″ (<20% = +)”. Moreover, the Peptide exchange result with HLA-A*02:01 was “″+++″ (≥50% = +++)”.
With “499 (KIFDIDEAEEGV; listed as Homo sapiens) [compound 499]”, the “Wells positive [%]” value in the experiment with CD8+ T cells was “″+″ (<20% = +)”. Besides, the Peptide exchange entry with HLA-A*02:01 is “″++″ (≥20% = ++)”.
The corresponding values for “79 (SLFIGEKAVLL; listed as Homo sapiens) [compound 79]” are “″+″ (<20% = +)” and “″+++″ (≥50% = +++)”.
For “443 (GLWEIENNPTV; listed as Homo sapiens) [compound 443]”, in that order: “″+″ (<20% = +)” and “″+++″ (≥50% = +++)”.
The corresponding values for “489 (KMWEELPEVV; listed as Homo sapiens) [compound 489]” are “″+″ (<20% = +)” and “″+++″ (≥50% = +++)”.
On to “460 (AMLEKNYKL; listed as Homo sapiens) [compound 460]”, for which the “Wells positive [%]” value in the experiment with CD8+ T cells is listed as “″+″ (<20% = +)”. Also, the Peptide exchange entry with HLA-A*02:01 is reported as “″++++″ (≥75% = ++++)”.
